{
  "source": "patent US10214766B2",
  "about": "“Luminescent substrate for use in artificial bioluminescent enzyme” (NATIONAL INSTITUTE OF ADVANCED INDUSTRIAL SCIENCE AND …, priority 2013, dated 2019)",
  "format_in_all_cases": "biochemical",
  "key": {"RLuc8.6-535 [1]": {"molecular_target": "T1, RLuc8.6-535 (Renilla reniformis, UniProt P27652, A123S/A143M/A55T/C124A/D162E/I163L/K136R/M185L/M253L/S130A/S287L)", "T1 construct": "expressed in transfected cells; host or cells: COS-7 (African monkey kidney), lysate", "T1 sequence (P27652 whole entry A55T/A123S/C124A/S130A/K136R/A143M/D162E/I163L/M185L/M253L/S287L)": "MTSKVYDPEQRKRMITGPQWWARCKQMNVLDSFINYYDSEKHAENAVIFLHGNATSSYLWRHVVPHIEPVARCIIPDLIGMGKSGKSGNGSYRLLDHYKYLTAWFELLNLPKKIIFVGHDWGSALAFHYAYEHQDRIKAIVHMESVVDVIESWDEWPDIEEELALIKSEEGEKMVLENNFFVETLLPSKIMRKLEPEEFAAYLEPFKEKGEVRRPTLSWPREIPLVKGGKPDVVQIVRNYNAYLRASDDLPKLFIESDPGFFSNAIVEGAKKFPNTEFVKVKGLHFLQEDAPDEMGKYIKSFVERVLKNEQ", "settings": "COS-7 lysate 10 μL, LAS-4000", "protocol": "(§1) First, African monkey kidney-derived culture cells COS-7 were cultured in a 96-well plate until the culture area covered 90% of the lower area of the plate. At this stage, the plate wells growing cells were divided into two groups, and pcDNA3.1(+) vector, which expresses ALuc34 or RLuc8.6-535, was introduced into each group by the lipofection technique (TransIT-LT1), followed by further incubation for 16 hours. After incubation, the cells were lysed and an aliquot of the lysates (10 μL) is placed in a fresh 96-well plate. Different luminescent substrates were simultaneously added thereto using a multichannel pipette, and the relative luminescence intensity was immediately measured with a luminescence imaging analyzer LAS-4000 (FujiFilm). […] As used herein, “substrate selectivity” refers to a luminescence intensity of ALuc compared with the luminescence intensity of RLuc8.6-535 in the presence of the same luminescent substrate."}, "ALuc34": {"tested_on": "ALuc34", "experiment": "Relative luminescence intensity of lysates of COS-7 cells expressing ALuc34 after adding coelenterazine derivatives", "settings": "for Ratios (A34/RLuc8.6-535): ALuc34 intensity over RLuc8.6-535 intensity, same substrate; for Luminescence intensity ALuc34 ave: COS-7 lysate 10 μL, LAS-4000; for substrate selectivity (RLuc8.6-535:ALuc, 1:x): luminescence intensity of ALuc compared with RLuc8.6-535, same substrate", "protocol": "as §1"}, "ALuc": {"tested_on": "ALuc", "experiment": "Dual assay with or without 0.1% SDS, ALuc luminescence", "settings": "sulfate", "protocol": "(§2) It is advantageous for simultaneous measurement of multiple biomarkers if a dual assay can be performed in the presence of two or more bioluminescent enzymes. With this point in mind, luminescence was measured in the presence of two bioluminescent enzymes (ALuc and CLuc) (FIG. 5). First, COS-7 cells were cultured in a 96-well plate, and a plasmid that expresses ALuc or CLuc was transfected into each cellular compartment by lipofection. Under the conditions, CLuc is secreted, but ALuc largely remains inside the cells because of the endoplasmic reticulum localization signal (KDEL) attached to the terminus. 16 hours later, 10 μL of the CLuc culture solution was mixed with 2 μL of ALuc lysate. Then, the luminescence intensity was compared between the cases where 0.1% SDS was added or not, After addition of the luminescent substrates specific to ALuc and CLuc, respectively."}, "[2]": {"tested_on": "Cypridina luciferase (CLuc)", "experiment": "Dual assay with or without 0.1% SDS, CLuc luminescence", "protocol": "as §2"}, "RLuc8.6-535 [3]": {"molecular_target": "T1, RLuc8.6-535", "settings": "5 μL lysate + 30 μL substrate, AB-1850"}},
  "note": "“Also recorded” adds a separate entry of the source.",
  "data": [
    {"compound": "Oc1ccc(-c2cn3c(O)c(Cc4ccccc4)nc3c(CC3CCCC3)n2)cc1", "note": "[CTZ hcp, coelenterazine hcp, reference compound]", "values": [
      {"measurement": "Luminescence intensity RLuc8.6-535 ave", "setting": "RLuc8.6-535 [1]", "result": 2058, "unit": "RLU/μg/sec/mm2"},
      {"measurement": "Ratios (A34/RLuc8.6-535)", "setting": "ALuc34", "result": 3},
      {"measurement": "Luminescence intensity ALuc34 ave", "setting": "ALuc34", "result": 5191, "unit": "RLU/μg/sec/mm2"}
    ]},
    {"compound": "O=c1c(Cc2ccccc2)nc2c(Cc3ccccc3)[nH]c(-c3ccccc3)cn1-2", "note": "[CTZ 400, coelenterazine 400A]", "values": [
      {"measurement": "Luminescence intensity RLuc8.6-535 ave", "setting": "RLuc8.6-535 [1]", "result": 3, "unit": "RLU/μg/sec/mm2"},
      {"measurement": "luminescence intensity with ALuc (in words)", "setting": "ALuc34", "result": "luminescence intensity was almost not observed at all"},
      {"measurement": "Ratios (A34/RLuc8.6-535)", "setting": "ALuc34", "result": 3610},
      {"measurement": "Luminescence intensity ALuc34 ave", "setting": "ALuc34", "result": 11624, "unit": "RLU/μg/sec/mm2"}
    ]},
    {"compound": "CCCCCCCCCCCCOS(=O)(=O)[O-].[Na+]", "note": "[SDS, sodium dodecyl sulfate]", "values": [
      {"measurement": "effect on ALuc luminescence activity", "setting": "ALuc", "result": "substantially deactivated; also recorded: mostly quenched"},
      {"measurement": "effect on CLuc luminescence activity", "setting": "[2]", "result": "somewhat maintained luminescence activity"}
    ]},
    {"compound": "Oc1ccc(-c2cn3c(O)c(Cc4ccc(F)cc4)nc3c(CC3CCCC3)n2)cc1", "note": "[CTZ fcp, coelenterazine fcp, reference compound]", "values": [
      {"measurement": "Luminescence intensity RLuc8.6-535 ave", "setting": "RLuc8.6-535 [1]", "result": 1217, "unit": "RLU/μg/sec/mm2"},
      {"measurement": "Ratios (A34/RLuc8.6-535)", "setting": "ALuc34", "result": 3},
      {"measurement": "Luminescence intensity ALuc34 ave", "setting": "ALuc34", "result": 3712, "unit": "RLU/μg/sec/mm2"}
    ]},
    {"compound": "O=c1c(Cc2ccccc2)nc2c(Cc3ccccc3)[nH]c(-c3ccc(O)cc3)cn1-2", "note": "[CTZ h, coelenterazine h]", "values": [
      {"measurement": "Spectrum peak RLuc8.6-535", "setting": "RLuc8.6-535 [3]", "result": 545, "unit": "nm"},
      {"measurement": "Luminescence intensity RLuc8.6-535 ave", "setting": "RLuc8.6-535 [1]", "result": 12812, "unit": "RLU/μg/sec/mm2"},
      {"measurement": "luminescence intensity with ALuc (in words)", "setting": "ALuc34", "result": "strong luminescence"},
      {"measurement": "Ratios (A34/RLuc8.6-535)", "setting": "ALuc34", "result": 91},
      {"measurement": "Luminescence intensity ALuc34 ave", "setting": "ALuc34", "result": 1168658, "unit": "RLU/μg/sec/mm2"}
    ]},
    {"compound": "Oc1ccc(Cc2nc3c(CC4CCCC4)nc(-c4ccc(O)cc4)cn3c2O)cc1", "note": "[CTZ op, coelenterazine cp, reference compound]", "values": [
      {"measurement": "Luminescence intensity RLuc8.6-535 ave", "setting": "RLuc8.6-535 [1]", "result": 5354, "unit": "RLU/μg/sec/mm2"},
      {"measurement": "Ratios (A34/RLuc8.6-535)", "setting": "ALuc34", "result": 8},
      {"measurement": "Luminescence intensity ALuc34 ave", "setting": "ALuc34", "result": 40564, "unit": "RLU/μg/sec/mm2"}
    ]},
    {"compound": "O=c1c(Cc2ccc(F)cc2)nc2c(Cc3ccccc3)[nH]c(-c3ccc(O)cc3)cn1-2", "note": "[CTZ f, coelenterazine f]", "values": [
      {"measurement": "Spectrum peak RLuc8.6-535", "setting": "RLuc8.6-535 [3]", "result": 547, "unit": "nm"},
      {"measurement": "Luminescence intensity RLuc8.6-535 ave", "setting": "RLuc8.6-535 [1]", "result": 7151, "unit": "RLU/μg/sec/mm2"},
      {"measurement": "Ratios (A34/RLuc8.6-535)", "setting": "ALuc34", "result": 134},
      {"measurement": "Luminescence intensity ALuc34 ave", "setting": "ALuc34", "result": 956530, "unit": "RLU/μg/sec/mm2"},
      {"measurement": "substrate selectivity (RLuc8.6-535:ALuc, 1:x)", "setting": "ALuc34", "result": 134}
    ]},
    {"compound": "coelenterazine ip [CTZ ip, reference compound]", "values": [
      {"measurement": "Spectrum peak RLuc8.6-535", "setting": "RLuc8.6-535 [3]", "result": 535, "unit": "nm"},
      {"measurement": "Luminescence intensity RLuc8.6-535 ave", "setting": "RLuc8.6-535 [1]", "result": 2200, "unit": "RLU/μg/sec/mm2"},
      {"measurement": "Ratios (A34/RLuc8.6-535)", "setting": "ALuc34", "result": 4},
      {"measurement": "Luminescence intensity ALuc34 ave", "setting": "ALuc34", "result": 8379, "unit": "RLU/μg/sec/mm2"}
    ]},
    {"compound": "O=c1c(Cc2ccc3ccccc3c2)nc2c(Cc3ccccc3)[nH]c(-c3ccc(O)cc3)cn1-2", "values": [
      {"measurement": "Luminescence intensity RLuc8.6-535 ave", "setting": "RLuc8.6-535 [1]", "result": 2132, "unit": "RLU/μg/sec/mm2"},
      {"measurement": "Ratios (A34/RLuc8.6-535)", "setting": "ALuc34", "result": 81},
      {"measurement": "Luminescence intensity ALuc34 ave", "setting": "ALuc34", "result": 172323, "unit": "RLU/μg/sec/mm2"}
    ]},
    {"compound": "O=c1c(Cc2ccc(I)cc2)nc2c(Cc3ccccc3)[nH]c(-c3ccc(O)cc3)cn1-2", "note": "[CTZ i, coelenterazine i]", "values": [
      {"measurement": "Luminescence intensity RLuc8.6-535 ave", "setting": "RLuc8.6-535 [1]", "result": 97, "unit": "RLU/μg/sec/mm2"},
      {"measurement": "luminescence intensity with ALuc (in words)", "setting": "ALuc34", "result": "high luminescence intensity"},
      {"measurement": "Ratios (A34/RLuc8.6-535)", "setting": "ALuc34", "result": 9398},
      {"measurement": "luminescent substrate selectivity", "setting": "ALuc34; ALuc versus RLuc8.6-535", "result": "about 10,000 fold"},
      {"measurement": "Luminescence intensity ALuc34 ave", "setting": "ALuc34", "result": 913540, "unit": "RLU/μg/sec/mm2"},
      {"measurement": "substrate selectivity (RLuc8.6-535:ALuc, 1:x)", "setting": "ALuc34", "result": 9400}
    ]}
  ]
}
